From patent US8399444B2, “Bicyclic imidazole as DP1 receptor antagonists” (GlaxoSmithKline Intellectual Property Development Ltd., priority 2008, dated 2013) come the findings set out here.

The assay has as its target T1, Prostanoid DP1 receptor (Homo sapiens, UniProt Q13258).
T1 construct: expressed in transfected cells; host or cells: CHO K1
T1 sequence (Q13258 1-359): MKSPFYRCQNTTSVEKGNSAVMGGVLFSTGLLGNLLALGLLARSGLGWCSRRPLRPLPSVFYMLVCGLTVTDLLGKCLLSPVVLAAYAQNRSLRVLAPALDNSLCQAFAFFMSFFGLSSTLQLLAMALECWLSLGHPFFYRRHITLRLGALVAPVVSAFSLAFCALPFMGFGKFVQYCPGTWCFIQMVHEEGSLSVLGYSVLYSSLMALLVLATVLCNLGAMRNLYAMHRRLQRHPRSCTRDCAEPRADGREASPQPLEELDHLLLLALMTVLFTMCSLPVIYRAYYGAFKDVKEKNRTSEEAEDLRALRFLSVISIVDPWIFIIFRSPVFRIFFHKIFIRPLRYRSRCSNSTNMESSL
The assay can be described thus: Measurement of cAMP using TR-FRET LANCE assay: Prostanoid DP1. The format is cell-based. The conditions noted are these: CHO cells expressing DP1 receptor, antagonism of PGD2 (EC80) cAMP response; read-out: pKi value (converted). The procedure:
CHO K1 cells, stably expressing the Prostanoid DP1 receptor, were maintained in culture in DMEM/F12, supplemented with 5% FBS, 2 mM L-glutamine, 400 μg/mL hygromycin B in 95%: 5% air: CO2 at 37° C. Following harvest from culture, cells were centrifuged at 250 g at 4° C. for 10 minutes and re-suspended in ice cold dialysed FCS. Once the cells were in mono-suspension they were slowly mixed with an equal volume of ice cold 80% dialysed FCS: 20% DMSO (pre-mixed and chilled several hours earlier). The cells were then aliquoted into 1 mL tubes within a 96 well block (pre-cooled to 4° C.). Once sealed, the tubes were frozen in a controlled rate freezer. The frozen cells were then transferred to a −140° C. freezer for long term storage.
Measurement of cAMP Using TR-FRET LANCE™ Assays: Prostanoid DP1
The potency of the compounds were determined using a LANCE™ cAMP assay kit as per the kit instructions. Briefly, CHO cells expressing DP1 receptor were thawed at 37° C., diluted in PBS and centrifuged at 1000 RPM for 5 minutes. Cells were then re-suspended (2 million cells/mL) in stimulation buffer (HBSS containing 0.01% BSA, 500 μM FAC IBMX, 5 mmol/L HEPES adjusted to pH 7.4 with KOH.
Briefly, cells were added (10,000 cells/well at 5 μL addition) to low volume white Greiner polypropylene 384-well plate assay plates containing 0.1 μl test compound. Following a 15 minute incubation at room temperature, 5 μl of antibody solution (stimulation buffer containing Alexia fluor 647) containing PGD2 at twice the determined EC80 concentration was added. Plates were incubated for a further 30 minutes at room temperature then detection mixture was added (kit components; detection buffer, europiumW8044-labelled streptavidin and biotin cAMP at 10 μl/well). Plates were covered and incubated the room temperature for 1 hour before reading on a Viewlux Microplate Imager using TR-FRET label settings.
All compounds were dissolved in DMSO at a concentration of 10 mM and were prepared in 100% DMSO using a 1 in 4 dilution step to provide 11-point concentration—response curves. The dilutions were transferred to the assay plates ensuring that the DMSO concentration was constant across the plate at 1% for all assays.
All data were normalised to the mean of 16 high and 16 low control wells on each plate. A four parameter curve fit of the following form was then applied.
Where a is the minimum, b is the Hill slope, c is the XC50, and d is the maximum. Data are presented as the mean pXC50 (negative log 10 of the molar XC50) with the standard deviation (SD) of number of tests in the experiments.
On the technique in general: In TR-FRET formats the signal depends on donor and acceptor labels being close together.

Several values for one entry are separate records, joined by “and”; a condition that tells them apart may be missing. Identical values can stand only once. Counter-ions that a name gives are not always drawn. A value given as a limit tells only on which side of the number the result lay.

For `CC(C)c1nc2c(n1Cc1ccc(Cl)c(Cl)c1)C(OCC(=O)O)CCCC2` (single isomer, unassigned; isomer 1) [Example 36, {[3-[(3,4-dichlorophenyl)methyl]-2-(1-methylethyl)-3,4,5,6,7,8-hexahydrocyclohepta[d]imidazol-4-yl]oxy}acetic acid ammonia salt (Isomer 1)], the Ki is at most 100 nM. Consider `CC(C)c1nc2c(n1Cc1ccc(Cl)cc1)C(OCC(=O)O)CCC2` (single isomer, unassigned; isomer 2) [Example 26, {[1-[(4-chlorophenyl)methyl]-2-(1-methylethyl)-4,5,6,7-tetrahydro-1H-benzimidazol-7-yl]oxy}acetic acid formic acid salt (isomer 2)], for which the Ki is at most 10 nM.

`CC(C)c1nc2c(n1Cc1ccc(Cl)cc1)C(CC(=O)O)CCC2` (single isomer, unassigned; isomer 2) [Example 32, (−)-[1-[(4-chlorophenyl)methyl]-2-(1-methylethyl)-4,5,6,7-tetrahydro-1H-benzimidazol-7-yl]acetic acid (Isomer 2)]: the Ki was at most 10 nM. With `CC(C)c1nc2c(n1Cc1ccc(Cl)cc1)C(CC(=O)O)CC2` (stereo not drawn) [Example 7, [3-[(4-chlorophenyl)methyl]-2-(1-methylethyl)-3,4,5,6-tetrahydrocyclopenta[d]imidazol-4-yl]acetic acid ammonia salt], the Ki is at most 100 nM.

Turning to `CC(C)c1nc2c(n1Cc1ccc(Cl)cc1)C(CC(=O)O)CCC2` (single isomer, unassigned; isomer 2) [Example 17, (−)-[1-[(4-chlorophenyl)methyl]-2-(1-methylethyl)-4,5,6,7-tetrahydro-1H-benzimidazol-7-yl]acetic acid ammonia salt (Isomer 2)], the Ki is at most 10 nM.

For the molecule `CC(C)c1nc2c(n1Cc1ccc(Cl)c(Cl)c1)C(CC(=O)O)CCCC2` (single isomer, unassigned; isomer 1) [Example 4, (+)-[3-[(3,4-dichlorophenyl)methyl]-2-(1-methylethyl)-3,4,5,6,7,8-hexahydrocyclohepta[d]imidazol-4-yl]acetic acid (isomer 1)], the Ki is at most 10 nM. Then `CC(C)(C)c1nc2c(n1Cc1ccc(Cl)cc1)C(CC(=O)O)CC2` (stereo not drawn) [Example 14, [3-[(4-chlorophenyl)methyl]-2-(1,1-dimethylethyl)-3,4,5,6-tetrahydrocyclopenta[d]imidazol-4-yl]acetic acid ammonia salt], with at most 100 nM. As to `CC(C)c1nc2c(n1[C@H](C)c1ccccc1)C(CC(=O)O)CCC2` (stereo partly drawn) [Example 31, {2-(1-methylethyl)-1-[(1R)-1-phenylethyl]-4,5,6,7-tetrahydro-1H-benzimidazol-7-yl}acetic acid ammonia salt], the Ki was at most 100 nM. Then `CC(C)(C)c1nc2c(n1Cc1ccc(Cl)cc1)C(CC(=O)O)CCCC2` (stereo not drawn) [Example 6, [3-[(4-chlorophenyl)methyl]-2-(1,1-dimethylethyl)-3,4,5,6,7,8-hexahydrocyclohepta[d]imidazol-4-yl]acetic acid], with at most 10 nM; and `CC(C)c1nc2c(n1[C@H](C)c1ccc(Cl)cc1)C(CC(=O)O)CCC2` (stereo partly drawn) [Example 33, [1-[(1R)-1-(4-chlorophenyl)ethyl]-2-(1-methylethyl)-4,5,6,7-tetrahydro-1H-benzimidazol-7-yl]acetic acid ammonia salt], with at most 100 nM; and `CC(C)c1nc2c(n1Cc1ccc(Cl)c(Cl)c1)[C@@H](CC(=O)O)CCC2` [Example 40, [(7R)-1-[(3,4-dichlorophenyl)methyl]-2-(1-methylethyl)-4,5,6,7-tetrahydro-1H-benzimidazol-7-yl]acetic acid], with ≤ 100 nM and ≤ 10 nM and ~2.51 nM. Take `CC(C)c1nc2c(n1Cc1ccc(Cl)c(Cl)c1)C(CC(=O)O)CC2` (single isomer, unassigned; isomer 2) [Example 11, [3-[(3,4-dichlorophenyl)methyl]-2-(1-methylethyl)-3,4,5,6-tetrahydrocyclopenta[d]imidazol-4-yl]acetic acid ammonia salt (Isomer 2)]: the Ki was at most 100 nM. Then `CC(C)c1nc2c(n1Cc1ccc(Cl)cc1)C(CC(=O)O)CCC2` (stereo not drawn) [Example 15, [1-[(4-chlorophenyl)methyl]-2-(1-methylethyl)-4,5,6,7-tetrahydro-1H-benzimidazol-7-yl]acetic acid], with at most 10 nM.

`CC(C)c1nc2c(n1Cc1ccc(Cl)cc1)C(CC(=O)O)CCCC2` (stereo not drawn) [Example 1, [3-[(4-chlorophenyl)methyl]-2-(1-methylethyl)-3,4,5,6,7,8-hexahydrocyclohepta[d]imidazol-4-yl]acetic acid]: the Ki was at most 10 nM. For the molecule `CC(C)c1nc2c(n1Cc1ccc(Cl)c(Cl)c1)C(CC(=O)O)CC2` (stereo not drawn) [Example 9, [3-[(3,4-dichlorophenyl)methyl]-2-(1-methylethyl)-3,4,5,6-tetrahydrocyclopenta[d]imidazol-4-yl]acetic acid ammonia salt], the Ki was at most 10 nM. As for `CC(C)c1nc2c(n1Cc1ccc(Cl)c(Cl)c1)C(OCC(=O)O)CCCC2` (single isomer, unassigned; isomer 2) [Example 37, {[3-[(3,4-dichlorophenyl)methyl]-2-(1-methylethyl)-3,4,5,6,7,8-hexahydrocyclohepta[d]imidazol-4-yl]oxy}acetic acid ammonia salt (Isomer 2)], the Ki was at most 10 nM. Then `CC(C)c1nc2c(n1Cc1ccc(Cl)cc1)C(OCC(=O)O)CCC2` (stereo not drawn) [Example 24, {[1-[(4-chlorophenyl)methyl]-2-(1-methylethyl)-4,5,6,7-tetrahydro-1H-benzimidazol-7-yl]oxy}acetic acid, formic acid salt], with at most 100 nM. Then `CC(C)(C)c1nc2c(n1Cc1ccc(Cl)cc1)C(CC(=O)O)CCC2` (stereo not drawn) [Example 23, [1-[(4-chlorophenyl)methyl]-2-(1,1-dimethylethyl)-4,5,6,7-tetrahydro-1H-benzimidazol-7-yl]acetic acid, formic acid salt], with at most 100 nM; and `CC(C)c1nc2c(n1Cc1ccc(Cl)c(Cl)c1)C(CC(=O)O)CCCC2` (stereo not drawn) [Example 3, [3-[(3,4-dichlorophenyl)methyl]-2-(1-methylethyl)-3,4,5,6,7,8-hexahydrocyclohepta[d]imidazol-4-yl]acetic acid ammonia salt], with at most 10 nM; and `CC(C)c1nc2c(n1Cc1ccc(Cl)c(Cl)c1)C(CC(=O)O)CC2` (single isomer, unassigned; isomer 1) [Example 10, (+)-[3-[(3,4-dichlorophenyl)methyl]-2-(1-methylethyl)-3,4,5,6-tetrahydrocyclopenta[d]imidazol-4-yl]acetic acid ammonia salt (Isomer 1)], with at most 10 nM. Then `CC(C)c1nc2c(n1Cc1ccc(Cl)c(Cl)c1)C(OCC(=O)O)CCCC2` (stereo not drawn) [Example 35, {[3-[(3,4-dichlorophenyl)methyl]-2-(1-methylethyl)-3,4,5,6,7,8-hexahydrocyclohepta[d]imidazol-4-yl]oxy}acetic acid hydrochloride], with at most 100 nM; and `CC(C)c1nc2c(n1Cc1ccc(Cl)cc1Cl)C(CC(=O)O)CCC2` (stereo not drawn) [Example 18, [1-(2,4-dichlorobenzyl)-2-isopropyl-4,5,6,7-tetrahydro-1H-benzimidazol-7-yl]acetic acid ammonia salt], with at most 100 nM; and `CC(C)c1nc2c(n1Cc1ccc(Cl)c(Cl)c1)C(CC(=O)O)CCC2` (single isomer, unassigned; isomer 2) [Example 20, (−)-[1-[3,4-dichlorophenyl)methyl]-2-(1-methylethyl)-4,5,6,7-tetrahydro-1H-benzimidazol-7-yl]acetic acid ammonia salt (Isomer 2)], with ≤ 100 nM and ≤ 10 nM and ~2 nM. `CC(C)c1nc2c(n1Cc1ccc(Cl)c(Cl)c1)C(CC(=O)O)CCCC2` (single isomer, unassigned; isomer 2) [Example 5, [3-[(3,4-dichlorophenyl)methyl]-2-(1-methylethyl)-3,4,5,6,7,8-hexahydrocyclohepta[d]imidazol-4-yl]acetic acid (isomer 2)]: the Ki is at most 100 nM.
